Values of other authors in patent US20130130306A1, “ZN (II) BASED COLORIMETRIC SENSOR AND PROCESS FOR THE PREPARATION THEREOF” (COUNCIL OF SCIENTIFIC & INDUSTRIAL RESEARCH, priority 2010, published 2013).

System: living microbes (eukaryotes and prokaryotes)
Conditions: drug carrier, general knowledge; cited from earlier work

Question: Which “toxicity to the living cell (known)” value does the source give for OC[C@H]1O[C@@H]2O[C@H]3[C@H](O)[C@@H](O)[C@@H](O[C@H]4[C@H](O)[C@@H](O)[C@@H](O[C@H]5[C@H](O)[C@@H](O)[C@@H](O[C@H]6[C@H](O)[C@@H](O)[C@@H](O[C@H]7[C@H](O)[C@@H](O)[C@@H](O[C@H]1[C@H](O)[C@H]2O)O[C@@H]7CO)O[C@@H]6CO)O[C@@H]5CO)O[C@@H]4CO)O[C@@H]3CO [α-CD, α-cyclodextrin] here?
Answer: completely non-toxic
